From paper doi:10.1101/2020.06.11.145995v1 (biorxiv, 2020)
Where two headings read alike, the source gives them in different places.

Columns and labels:
Experiment in all cases: biochemical
[1] = target: ALK(C1156Y) (Homo sapiens, UniProt Q9UM73, C1156Y); settings: read-out: CPT-1-70-1 (1uM) % control
[2] = target: BUB1 (Homo sapiens, UniProt O43683); settings: read-out: CPT-1-70-1 (1uM) % control
[3] = target: EGFR(T790M) (Homo sapiens, UniProt P00533, T790M); settings: read-out: CPT-1-70-1 (1uM) % control
[4] = target: EIF2AK1 (Homo sapiens, UniProt Q9BQI3); settings: read-out: CPT-1-70-1 (1uM) % control
[5] = target: EPHA1 (Homo sapiens, UniProt P21709); settings: read-out: CPT-1-70-1 (1uM) % control
[6] = target: EPHA2 (Homo sapiens, UniProt P29317); settings: read-out: CPT-1-70-1 (1uM) % control
[7] = target: EPHA4 (Homo sapiens, UniProt P54764); settings: read-out: CPT-1-70-1 (1uM) % control
[8] = target: EPHA7 (Homo sapiens, UniProt Q15375); settings: read-out: CPT-1-70-1 (1uM) % control
[9] = target: EPHA8 (Homo sapiens, UniProt P29322); settings: read-out: CPT-1-70-1 (1uM) % control
[10] = target: EPHB1 (Homo sapiens, UniProt P54762); settings: read-out: CPT-1-70-1 (1uM) % control
[11] = target: EPHB2 (Homo sapiens, UniProt P29323); settings: read-out: CPT-1-70-1 (1uM) % control
[12] = target: ERK1 (Homo sapiens, UniProt P27361); settings: read-out: CPT-1-70-1 (1uM) % control
[13] = target: ERK3 (Homo sapiens, UniProt Q16659); settings: read-out: CPT-1-70-1 (1uM) % control
[14] = target: ERK5 (Homo sapiens, UniProt Q13164); settings: read-out: CPT-1-70-1 (1uM) % control
[15] = target: ERK8 (Homo sapiens, UniProt Q8TD08); settings: read-out: CPT-1-70-1 (1uM) % control
[16] = target: HASPIN (Homo sapiens, UniProt Q8TF76); settings: read-out: CPT-1-70-1 (1uM) % control
[17] = target: ABL1(F317I)-phosphorylated (Homo sapiens, UniProt P00519, F317I)
[18] = target: ABL1(M351T)-phosphorylated (Homo sapiens, UniProt P00519, M351T)
[19] = target: ABL1(F317L)-phosphorylated (Homo sapiens, UniProt P00519, F317L)
[20] = target: FLT3-autoinhibited (Homo sapiens, UniProt P36888); settings: read-out: CPT-1-70-1 (1uM) % control
[21] = target: KIT-autoinhibited (Homo sapiens, UniProt P10721); settings: read-out: CPT-1-70-1 (1uM) % control
[22] = target: KIT(V559D,T670I) (Homo sapiens, UniProt P10721, T670I/V559D); settings: read-out: CPT-1-70-1 (1uM) % control
[23] = target: CSF1R-autoinhibited (Homo sapiens, UniProt P07333); settings: read-out: CPT-1-70-1 (1uM) % control
[24] = target: EGFR(L858R,T790M) (Homo sapiens, UniProt P00533, L858R/T790M); settings: read-out: CPT-1-70-1 (1uM) % control
[25] = target: ABL1(E255K)-phosphorylated (Homo sapiens, UniProt P00519, E255K); settings: read-out: CPT-1-70-1 (1μM) % control
[26] = target: PFCDPK1(P.falciparum) (Plasmodium falciparum, UniProt P62344); settings: read-out: CPT-1-70-1 (1μM) % control
[27] = target: PFPK5(P.falciparum) (Plasmodium falciparum, UniProt P61075); settings: read-out: CPT-1-70-1 (1μM) % control
[28] = target: PKNB(M.tuberculosis) (Mycobacterium tuberculosis, UniProt P9WI81); settings: read-out: CPT-1-70-1 (1μM) % control
[29] = read-out: CPT-1-70-1 (1uM) % control
[30] = read-out: HYJ-2-002-1 (1uM) % control

PFCDPK1(P.falciparum), sequence (P62344 whole entry): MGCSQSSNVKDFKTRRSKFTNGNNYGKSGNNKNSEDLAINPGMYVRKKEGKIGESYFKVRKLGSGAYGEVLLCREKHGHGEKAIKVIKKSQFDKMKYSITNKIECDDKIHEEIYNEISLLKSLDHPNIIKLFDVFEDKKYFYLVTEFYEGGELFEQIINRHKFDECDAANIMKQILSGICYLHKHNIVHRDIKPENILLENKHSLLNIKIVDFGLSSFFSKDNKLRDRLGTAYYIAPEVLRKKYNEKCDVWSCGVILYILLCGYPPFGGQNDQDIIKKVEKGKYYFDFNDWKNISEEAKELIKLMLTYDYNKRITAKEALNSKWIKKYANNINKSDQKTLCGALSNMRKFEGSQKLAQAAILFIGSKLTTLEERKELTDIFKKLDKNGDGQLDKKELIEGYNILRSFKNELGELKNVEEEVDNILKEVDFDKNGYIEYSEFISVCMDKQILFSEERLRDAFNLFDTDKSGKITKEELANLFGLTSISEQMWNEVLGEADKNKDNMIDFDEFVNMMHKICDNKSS
ERK3, sequence (Q16659 whole entry): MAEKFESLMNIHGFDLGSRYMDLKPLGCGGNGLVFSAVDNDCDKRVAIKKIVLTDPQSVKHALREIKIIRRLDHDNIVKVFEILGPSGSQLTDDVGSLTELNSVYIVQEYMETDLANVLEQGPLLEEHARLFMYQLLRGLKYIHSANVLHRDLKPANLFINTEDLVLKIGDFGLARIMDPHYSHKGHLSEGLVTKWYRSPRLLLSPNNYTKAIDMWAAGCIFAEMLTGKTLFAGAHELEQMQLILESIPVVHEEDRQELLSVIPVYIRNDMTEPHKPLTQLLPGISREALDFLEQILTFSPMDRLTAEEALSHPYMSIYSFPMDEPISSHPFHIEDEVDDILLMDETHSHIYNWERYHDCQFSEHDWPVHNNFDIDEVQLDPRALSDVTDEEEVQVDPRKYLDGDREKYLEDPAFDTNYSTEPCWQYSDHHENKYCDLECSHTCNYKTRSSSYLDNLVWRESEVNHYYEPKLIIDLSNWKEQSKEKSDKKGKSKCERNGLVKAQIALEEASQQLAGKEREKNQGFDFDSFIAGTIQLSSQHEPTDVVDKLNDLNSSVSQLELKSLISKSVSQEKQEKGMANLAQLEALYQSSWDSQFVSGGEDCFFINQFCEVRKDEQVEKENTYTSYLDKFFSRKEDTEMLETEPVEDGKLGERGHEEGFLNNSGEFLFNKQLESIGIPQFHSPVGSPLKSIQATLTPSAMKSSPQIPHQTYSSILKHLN
ERK8, sequence (Q8TD08 whole entry): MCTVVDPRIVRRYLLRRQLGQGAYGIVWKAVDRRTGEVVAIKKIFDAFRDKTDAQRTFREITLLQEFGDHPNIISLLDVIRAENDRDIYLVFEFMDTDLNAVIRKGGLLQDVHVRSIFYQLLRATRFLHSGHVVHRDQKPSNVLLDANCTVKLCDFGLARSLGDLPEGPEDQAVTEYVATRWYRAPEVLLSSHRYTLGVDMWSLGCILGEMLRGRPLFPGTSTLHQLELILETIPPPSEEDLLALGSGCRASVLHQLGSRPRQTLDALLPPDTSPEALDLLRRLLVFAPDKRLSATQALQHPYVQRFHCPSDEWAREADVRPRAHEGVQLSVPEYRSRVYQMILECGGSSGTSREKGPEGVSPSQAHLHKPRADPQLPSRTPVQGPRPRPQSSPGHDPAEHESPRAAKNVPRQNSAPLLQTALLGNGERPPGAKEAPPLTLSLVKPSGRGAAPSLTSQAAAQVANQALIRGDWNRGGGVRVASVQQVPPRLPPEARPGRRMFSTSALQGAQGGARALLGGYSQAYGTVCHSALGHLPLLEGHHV
FLT3-autoinhibited, sequence (P36888 whole entry): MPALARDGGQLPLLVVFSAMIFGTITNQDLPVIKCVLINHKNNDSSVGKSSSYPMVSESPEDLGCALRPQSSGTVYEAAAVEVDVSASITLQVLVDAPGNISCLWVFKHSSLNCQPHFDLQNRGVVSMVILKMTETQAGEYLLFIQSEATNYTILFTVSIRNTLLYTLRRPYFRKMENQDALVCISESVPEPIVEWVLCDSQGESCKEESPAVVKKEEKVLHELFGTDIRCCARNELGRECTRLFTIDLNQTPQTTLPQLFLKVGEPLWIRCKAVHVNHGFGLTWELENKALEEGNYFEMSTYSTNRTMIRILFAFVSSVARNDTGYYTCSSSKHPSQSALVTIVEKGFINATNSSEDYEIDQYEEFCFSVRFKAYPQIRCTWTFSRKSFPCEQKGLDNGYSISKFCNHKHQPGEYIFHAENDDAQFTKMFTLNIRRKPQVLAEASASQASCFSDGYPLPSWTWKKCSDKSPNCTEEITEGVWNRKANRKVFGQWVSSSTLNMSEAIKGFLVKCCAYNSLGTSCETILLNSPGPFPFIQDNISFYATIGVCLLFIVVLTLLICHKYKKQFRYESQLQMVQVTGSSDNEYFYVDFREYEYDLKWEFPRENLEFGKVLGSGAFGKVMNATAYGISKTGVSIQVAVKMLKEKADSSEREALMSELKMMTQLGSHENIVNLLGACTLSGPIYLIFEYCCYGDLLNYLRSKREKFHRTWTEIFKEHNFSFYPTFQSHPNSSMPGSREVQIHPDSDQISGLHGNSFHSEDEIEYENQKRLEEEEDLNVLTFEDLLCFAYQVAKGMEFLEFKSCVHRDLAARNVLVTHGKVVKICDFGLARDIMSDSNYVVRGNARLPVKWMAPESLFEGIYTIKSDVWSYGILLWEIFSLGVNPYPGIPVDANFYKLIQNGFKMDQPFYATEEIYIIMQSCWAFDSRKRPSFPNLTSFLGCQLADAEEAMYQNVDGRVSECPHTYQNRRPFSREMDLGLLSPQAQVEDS
EGFR(L858R,T790M), sequence (P00533 whole entry T790M/L858R): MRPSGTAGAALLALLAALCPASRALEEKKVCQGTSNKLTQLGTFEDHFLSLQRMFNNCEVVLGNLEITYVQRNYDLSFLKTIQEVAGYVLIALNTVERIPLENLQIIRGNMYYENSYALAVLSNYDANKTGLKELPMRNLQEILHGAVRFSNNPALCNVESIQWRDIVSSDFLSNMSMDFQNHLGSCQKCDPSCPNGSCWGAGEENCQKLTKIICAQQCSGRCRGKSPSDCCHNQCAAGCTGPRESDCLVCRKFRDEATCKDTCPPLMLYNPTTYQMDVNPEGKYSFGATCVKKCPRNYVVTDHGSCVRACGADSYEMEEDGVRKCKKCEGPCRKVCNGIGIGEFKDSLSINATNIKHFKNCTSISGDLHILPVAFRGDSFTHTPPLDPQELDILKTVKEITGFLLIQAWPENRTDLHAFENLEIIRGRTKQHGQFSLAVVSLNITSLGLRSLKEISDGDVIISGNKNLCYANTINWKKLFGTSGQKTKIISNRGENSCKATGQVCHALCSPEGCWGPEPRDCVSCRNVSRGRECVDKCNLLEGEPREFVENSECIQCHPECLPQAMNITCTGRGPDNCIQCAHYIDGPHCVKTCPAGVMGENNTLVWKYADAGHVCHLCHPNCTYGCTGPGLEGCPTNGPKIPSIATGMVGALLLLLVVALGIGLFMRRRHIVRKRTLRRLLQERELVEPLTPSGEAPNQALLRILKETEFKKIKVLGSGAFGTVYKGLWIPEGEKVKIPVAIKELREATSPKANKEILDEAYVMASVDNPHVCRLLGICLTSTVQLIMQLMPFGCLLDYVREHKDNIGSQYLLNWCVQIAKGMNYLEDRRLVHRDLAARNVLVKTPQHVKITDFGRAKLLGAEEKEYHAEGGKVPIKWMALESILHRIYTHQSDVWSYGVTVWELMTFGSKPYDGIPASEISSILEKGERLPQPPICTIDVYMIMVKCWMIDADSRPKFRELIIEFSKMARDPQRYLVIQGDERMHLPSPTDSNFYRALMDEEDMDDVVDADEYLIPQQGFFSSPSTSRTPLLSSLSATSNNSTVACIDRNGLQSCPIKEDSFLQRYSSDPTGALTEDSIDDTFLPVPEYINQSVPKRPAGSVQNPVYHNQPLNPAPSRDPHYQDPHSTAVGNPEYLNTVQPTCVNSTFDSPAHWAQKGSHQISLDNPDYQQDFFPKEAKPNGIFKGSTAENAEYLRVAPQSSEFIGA
EPHB2, sequence (P29323 whole entry): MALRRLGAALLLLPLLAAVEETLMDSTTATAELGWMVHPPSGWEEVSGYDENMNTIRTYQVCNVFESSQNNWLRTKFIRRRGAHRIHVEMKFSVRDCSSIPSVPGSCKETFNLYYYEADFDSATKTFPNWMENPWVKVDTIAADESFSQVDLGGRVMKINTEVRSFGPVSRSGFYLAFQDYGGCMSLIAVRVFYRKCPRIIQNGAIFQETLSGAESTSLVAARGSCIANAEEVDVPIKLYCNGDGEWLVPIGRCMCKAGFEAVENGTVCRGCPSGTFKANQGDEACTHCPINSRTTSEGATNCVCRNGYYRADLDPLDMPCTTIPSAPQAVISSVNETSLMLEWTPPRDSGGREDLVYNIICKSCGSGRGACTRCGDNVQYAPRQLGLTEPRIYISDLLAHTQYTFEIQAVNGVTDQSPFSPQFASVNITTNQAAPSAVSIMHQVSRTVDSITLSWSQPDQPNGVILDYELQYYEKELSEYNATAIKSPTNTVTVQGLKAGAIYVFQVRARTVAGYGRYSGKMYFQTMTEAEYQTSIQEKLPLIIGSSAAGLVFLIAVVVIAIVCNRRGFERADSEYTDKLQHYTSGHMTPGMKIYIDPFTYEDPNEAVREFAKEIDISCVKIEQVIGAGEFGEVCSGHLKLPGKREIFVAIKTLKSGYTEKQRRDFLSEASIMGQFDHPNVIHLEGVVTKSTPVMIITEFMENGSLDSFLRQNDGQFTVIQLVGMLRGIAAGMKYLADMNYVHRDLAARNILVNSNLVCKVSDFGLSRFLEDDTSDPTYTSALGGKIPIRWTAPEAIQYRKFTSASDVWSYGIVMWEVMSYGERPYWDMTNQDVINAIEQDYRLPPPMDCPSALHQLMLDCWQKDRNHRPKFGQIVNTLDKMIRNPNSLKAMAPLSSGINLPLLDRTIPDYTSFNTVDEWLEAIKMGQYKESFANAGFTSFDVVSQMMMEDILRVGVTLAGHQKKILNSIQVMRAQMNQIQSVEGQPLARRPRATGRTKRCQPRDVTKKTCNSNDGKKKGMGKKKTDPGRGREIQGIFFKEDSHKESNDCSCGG

Compound: CN1CCN(c2ccc(Nc3nc(Oc4ccc(NC(=O)CCl)cc4)c4cc[nH]c4n3)cc2)CC1 [CPT1-70-1]
- remaining activity at 1 µM [1]: 52%
- remaining activity at 1 µM [2]: 85%
- remaining activity at 1 µM [3]: 0.8%
- remaining activity at 1 µM [4]: 100%
- remaining activity at 1 µM [5]: 79%
- remaining activity at 1 µM [6]: 96%
- remaining activity at 1 µM [7]: 94%
- remaining activity at 1 µM [8]: 62%
- remaining activity at 1 µM [9]: 53%
- remaining activity at 1 µM [10]: 84%
- remaining activity at 1 µM [11]: 100%
- remaining activity at 1 µM [12]: 100%
- remaining activity at 1 µM [13]: 1%
- remaining activity at 1 µM [14]: 87%
- remaining activity at 1 µM [15]: 86%
- remaining activity at 1 µM [16]: 100%
- remaining activity at 1 µM [17, 29]: 100%
- remaining activity at 1 µM [18, 29]: 86%
- remaining activity at 1 µM [19, 29]: 99%
- remaining activity at 1 µM [20]: 38%
- remaining activity at 1 µM [21]: 39%
- remaining activity at 1 µM [22]: 28%
- remaining activity at 1 µM [23]: 1.4%
- remaining activity at 1 µM [24]: 0.35%
- remaining activity at 1 µM [25]: 90%
- remaining activity at 1 µM [26]: 100%
- remaining activity at 1 µM [27]: 100%
- remaining activity at 1 µM [28]: 58%

Compound: CCN1CCN(Cc2ccc(NC(=O)c3ccc(C)c(CCc4cnc5[nH]ccc5c4OC)c3)cc2C(F)(F)F)CC1 [HYJ-2-002-1]
- remaining activity at 1 µM [17, 30]: 34%
- remaining activity at 1 µM [18, 30]: 0.85%
- remaining activity at 1 µM [19, 30]: 2%
